Where “and” joins values, the source holds several entries; their conditions need not be identical. Equal values may be shown once.
Test system: healthy human subjects (panelists)
Test: Sniff test with heartbeat measurement (finger clip Heart Rhythm Monitor, Freeze-Framer 2.0) on human panelists
Assay type: in vivo
Conditions: for energizing effect compared with Amarocite and the mixtures: solution in mineral oil
Text: In order to introduce compounds of group (a) or a sensory complex as described above into the nasal cavity that will occur using many types of products containing the sensory complex the following method of human testing and data collection was developed, standardized and used to collect and analyze data to substantiate the energizing effects of the sensory complex materials in group (a).
Data collection and analysis of each panelists's heart rate was made using a finger clip attachment for the Heart Rhythm Monitor using Freeze-Framer® 2.0 software from HeartMath®, 14700 West Park Avenue, Boulder Creek, Calif.
The test is divided into 3 parts: • 1) the pre-sniff-test period: places the panelist in a neutral state (15 min), • 2) the sniff-test period (5 min), • 3) the post-sniff-test period (10 min). Typically during each test session, three fragrances (single compound or mixture of compounds) are presented to the panelist, so one test lasts for one hour.

COC(OC)C(C)(C)CC=C(C)C [Amarocite ®, 1,1-dimethoxy-2,2,5-trimethyl-4-hexene]
Heartbeat (bpm) After (individual panelists A-G, after inhalation, 1 wt.-% solution in mineral oil): 77 bpm and 81 bpm and 70 bpm and 78 bpm and 72 bpm and 71 bpm and 90 bpm | Heartbeat (bpm) Difference (individual panelists A-G, after minus before, 1 wt.-% solution in mineral oil): +9 bpm and +25 bpm and +6 bpm (2×) and +10 bpm and +12 bpm (2×) | Heartbeat (bpm) Before (individual panelists A-G, before inhalation (baseline), 1 wt.-% solution in mineral oil): 68 bpm (2×) and 56 bpm and 64 bpm and 60 bpm and 59 bpm and 84 bpm | Heartbeat (bpm) After, Mean (mean of panelists A-G, after inhalation, 1 wt.-% solution in mineral oil): 77 bpm | Heartbeat (bpm) Difference, Mean (mean of panelists A-G, after minus before, 1 wt.-% solution in mineral oil): +11.4 bpm | Heartbeat (bpm) Before, Mean (mean of panelists A-G, before inhalation (baseline), 1 wt.-% solution in mineral oil): 65.6 bpm | average heart rate increase (panelists, administered according to the protocol): 17.3%

CC(C)CCCC(C)CCO (stereo not drawn) [tetrahydrogeraniol]
energizing effect compared with Amarocite and the mixtures (0.8 wt.-% alone): Stronger energizing effects

CCCCCC1C(=O)CCC1CC(=O)OC (stereo not drawn) [methyl dihydro jasmonate]
energizing effect compared with Amarocite and the mixtures (2.0 wt.-% alone): Stronger energizing effects

Source: patent US20090298936A1, “METHOD FOR ENERGIZING HUMAN BEINGS” (SYMRISE GmbH & Co. KG, priority 2008, published 2009)
